Data as given in PubChem BioAssay (NCI).
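How tested: cells in 96-well plates exposed to compound for 48 hours at five concentrations. GI50 is the concentration that inhibits growth by half. At the TGI there is no net growth.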

Assays:
Experiment in all cases: inhibition of tumour cell growth, NCI panel, 48 h
DLD-1 colon = system: DLD-1 colon
SK-MEL-2 melanoma = system: SK-MEL-2 melanoma
LOX IMVI melanoma = system: LOX IMVI melanoma
NCI-H23 lung = system: NCI-H23 lung
786-0 renal = system: 786-0 renal
KM12 colon = system: KM12 colon
DMS 273 small cell lung = system: DMS 273 small cell lung
HCT-15 colon = system: HCT-15 colon
NCI-H226 lung = system: NCI-H226 lung
UO-31 renal = system: UO-31 renal

Row | Compound | TGI (DLD-1 colon) | TGI (SK-MEL-2 melanoma) | TGI (LOX IMVI melanoma) | TGI (NCI-H23 lung) | TGI (786-0 renal) | TGI (KM12 colon) | TGI (DMS 273 small cell lung) | TGI (HCT-15 colon) | TGI (NCI-H226 lung) | TGI (UO-31 renal) | GI50 (DLD-1 colon) | GI50 (SK-MEL-2 melanoma) | GI50 (LOX IMVI melanoma) | GI50 (NCI-H23 lung) | GI50 (786-0 renal) | GI50 (KM12 colon) | GI50 (DMS 273 small cell lung) | GI50 (HCT-15 colon) | GI50 (NCI-H226 lung) | GI50 (UO-31 renal)
1 | CC1=C(C(=O)Nc2ccccc2C)C(c2ccc(N(C)C)cc2)C(C(=O)Nc2ccccc2C)=C(C)N1 | > 100 µM | > 100 µM | > 100 µM | > 100 µM | > 100 µM | > 100 µM | > 100 µM | > 100 µM | > 100 µM | > 100 µM | – | – | – | – | – | – | – | – | – | –
2 | CCC[CH2][Sn]1([CH2]CCC)[O]C(=O)C[S]1 | 2.78 µM | 2.33 µM | 3.09 µM | 2.64 µM | 2.83 µM | 10.9 µM | 6.07 µM | 3.18 µM | 3.77 µM | 7.29 µM | 1290 nM | 975 nM | 1460 nM | 1280 nM | 1490 nM | 2600 nM | 2110 nM | 1460 nM | 1930 nM | 2480 nM
3 | COc1cc2ccc(CC#N)cc2cc1OC | > 100 µM | > 100 µM | > 100 µM | > 100 µM | > 100 µM | > 100 µM | > 100 µM | – | > 100 µM | > 100 µM | – | – | – | – | – | – | – | – | – | –
4 | CNC1=C(C)C(=O)C(C)=C(C(C)(C)CC(=O)n2cc(F)c(=O)[nH]c2=O)C1=O | > 100 µM | > 100 µM | > 100 µM | > 100 µM | > 100 µM | > 100 µM | > 100 µM | > 100 µM | > 100 µM | > 100 µM | – | – | – | – | – | – | – | – | – | –
5 | Cn1c2ccccc2c2cc(-c3ccccc3)c3c(c21)C(=O)C=CC3=O | 27.7 µM | 49.9 µM | 34.7 µM | 42.6 µM | 22.7 µM | 42.2 µM | 40.6 µM | 42.1 µM | 76.7 µM | 42.9 µM | – | – | – | – | – | – | – | – | – | –
6 | O=C1C2Cc3ccccc3CN2C(=O)N1CN1CCN(CN2C(=O)C3Cc4ccccc4CN3C2=O)CC1 (configuration not stated) | > 100 µM | > 100 µM | > 100 µM | > 100 µM | > 100 µM | > 100 µM | > 100 µM | > 100 µM | > 100 µM | > 100 µM | – | – | – | – | – | – | – | – | – | –
7 | COc1cc(NCC(C#N)C#N)ccc1N=Nc1ccc([N+](=O)[O-])cc1 | > 100 µM | > 100 µM | > 100 µM | > 100 µM | > 100 µM | > 100 µM | > 100 µM | > 100 µM | > 100 µM | > 100 µM | – | – | – | – | – | – | – | – | – | –
8 | COc1cc2c(c3oc(-c4ccc5c(c4)OCO5)c(O)c(=O)c13)CCC(C)(C)O2 | > 100 µM | > 100 µM | > 100 µM | > 100 µM | > 100 µM | > 100 µM | > 100 µM | > 100 µM | > 100 µM | > 100 µM | – | – | – | – | – | – | – | – | – | –
9 | CCOC(=O)c1c(-c2[nH]c(C(=O)OCc3ccccc3)c(C)c2C(=O)OCC)[nH]c(C(=O)OCc2ccccc2)c1C | > 100 µM | > 100 µM | > 100 µM | – | > 100 µM | – | > 100 µM | > 100 µM | > 100 µM | > 100 µM | – | – | – | – | – | – | – | – | – | –
10 | COc1cc(C2[C@H]3C(=O)N(c4ccc(Cc5ccc(N6C(=O)[C@@H]7ON(c8ccccc8)C(c8cc(OC)c(OC)c(OC)c8)[C@@H]7C6=O)cc5)cc4)C(=O)[C@H]3ON2c2ccccc2)cc(OC)c1OC (some centres not stated) | > 100 µM | > 100 µM | > 100 µM | > 100 µM | > 100 µM | > 100 µM | > 100 µM | > 100 µM | > 100 µM | > 100 µM | – | – | – | – | – | – | – | – | – | –
